According to publication PMC11354674, “Genome Mining and Genetic Manipulation Reveal New Isofuranonaphthoquinones in Nocardia Species” (International Journal of Molecular Sciences, 2024):
Like-named read-outs stand apart in the source and are kept apart here. Blank lines part the entries; values can stand above or below the compound they belong to.

Legend:
[1] = system: T1, ThnM3; assay: O-methylation assay, HPLC, nonlinear Michaelis-Menten fit; type: biochemical, Nocardia sp. CS682; conditions: 50 mM Tris, pH 8 in methods but pH 7.5 in Figure 5 legend, 5 µg ThnM3
T1 construct: methyltransferase of the tetrahydroxynaphthalene (THN) gene cluster

[2] = in vitro; parameters: species or system A549, Huh7, HeLa, U87MG; MTT colorimetric cell growth / viability assay; conditions: human, hacat cells
Protocol: Lung cancer cells (A549), liver cancer cells (Huh7), cervical cancer cells (HeLa), brain cancer cells (U87MG), and a normal cell line (human keratinocyte cell line (HaCaT)) were acquired from the Korean Cell Line Bank (Seoul, Republic of Korea). Ten percent fetal bovine serum (FBS) was added to Dulbecco’s modified Eagle’s medium (DMEM) to culture the HeLa A549 cells. Similarly, Huh7 cells were grown in DMEM obtained from Corning Cellgro Manassas, VA, USA. Glioblastoma U87MG cells were cultured in a minimum essential medium (MEM) supplemented with 10% FBS. DMEM supplemented with 10% FBS, 100 µg/mL streptomycin, and 100 µg/mL benzylpenicillin was used to grow HaCaT cell lines. Each cell line was kept in an incubator with 5% CO2 that was humidified at 37 °C (Thermo Scientific, Vantaa, Finland). For the cell growth assays, various cancer cells at 2 × 10^3 cells/well were plated in 96-well culture plates. NOC-IBR1 and NOC-IBR2 were added to each well at various concentrations (200 μM, 100 μM, 50 μM, 25 μM, 12.5 μM, 6.25 μM, 3.16 μM, 1.56 μM, and 0.78 μM), and the cells were incubated for 72 h. […] Figure 4 The cytotoxicity of NOC-IBR1 and NOC-IBR2 was assessed across different cell lines. […] Cell growth was measured using the MTT colorimetric assay. […] Similarly, the IC50 values of doxorubicin in the above cell lines were also calculated (Table S4). […]

[3] = system: A549; assay: cells; parameters: species or system Huh7, HeLa, U87MG, HaCaT; MTT colorimetric cell growth / viability assay; conditions: Homo sapiens, A549, 72 h; read-out: NOC-IBR1 IC50
Protocol: (§1) Lung cancer cells (A549), liver cancer cells (Huh7), cervical cancer cells (HeLa), brain cancer cells (U87MG), and a normal cell line (human keratinocyte cell line (HaCaT)) were acquired from the Korean Cell Line Bank (Seoul, Republic of Korea). Ten percent fetal bovine serum (FBS) was added to Dulbecco’s modified Eagle’s medium (DMEM) to culture the HeLa A549 cells. Similarly, Huh7 cells were grown in DMEM obtained from Corning Cellgro Manassas, VA, USA. Glioblastoma U87MG cells were cultured in a minimum essential medium (MEM) supplemented with 10% FBS. DMEM supplemented with 10% FBS, 100 µg/mL streptomycin, and 100 µg/mL benzylpenicillin was used to grow HaCaT cell lines. Each cell line was kept in an incubator with 5% CO2 that was humidified at 37 °C (Thermo Scientific, Vantaa, Finland). For the cell growth assays, various cancer cells at 2 × 10^3 cells/well were plated in 96-well culture plates. NOC-IBR1 and NOC-IBR2 were added to each well at various concentrations (200 μM, 100 μM, 50 μM, 25 μM, 12.5 μM, 6.25 μM, 3.16 μM, 1.56 μM, and 0.78 μM), and the cells were incubated for 72 h. A 3-(4,5-dimethylthiazol-2-yl)-2,5-diphenyltetrazolium bromide (MTT) colorimetric assay was used to measure cell growth (cell viability).  Figure 4 The cytotoxicity of NOC-IBR1 and NOC-IBR2 was assessed across different cell lines. Each cell line was maintained in a 5% CO2 humidified incubator at 37 °C. The cells were seeded at a density of 2 × 10^3 cells/well in 96-well culture plates for the cell growth assay. Various concentrations of the compounds (200 μM, 100 μM, 50 μM, 25 μM, 12.5 μM, 6.25 μM, 3.16 μM, 1.56 μM, and 0.78 μM) were added to each well, and the cells were incubated for 72 h. Cell growth was measured using the MTT colorimetric assay. NOC-IBR1 and NOC-IBR2 were further subjected to cytotoxicity assays against four different cancer cell lines using a colorimetric test of 3-(4,5-dimethylthiazol-2-yl)-2,5-diphenyltetrazolium bromide (MTT) (Figure 4). […] Similarly, the IC50 values of doxorubicin in the above cell lines were also calculated (Table S4). […] These findings further indicate that NOC-IBR1 and NOC-IBR2 substantially reduce the viability of A549, Huh7, HeLa, and U87MG cells in a dose-dependent manner. This is the first report on the cytotoxicity of these two compounds against cancer cell lines.

[4] = system: HeLa; assay: cells; parameters: species or system A549, Huh7, U87MG, HaCaT; MTT colorimetric cell growth / viability assay; conditions: Homo sapiens, HeLa, 72 h; read-out: NOC-IBR1 IC50
Protocol: as §1

[5] = system: U87MG; assay: cells; parameters: species or system A549, Huh7, HeLa, HaCaT; MTT colorimetric cell growth / viability assay; conditions: Homo sapiens, U-87 MG, 72 h; read-out: NOC-IBR1 IC50
Protocol: as §1

[6] = system: Huh7; assay: cells; parameters: species or system A549, HeLa, U87MG, HaCaT; MTT colorimetric cell growth / viability assay; conditions: Homo sapiens, Huh-7, 72 h; read-out: NOC-IBR1 IC50
Protocol: as §1

Km ([1]; methyl donor, 100 µM NOC-IBR1 (near-saturating), read-out: Km): 39.7 ± 6.08 µM
Structure (SMILES): C[S+](CC[C@H](N)C(=O)O)C[C@H]1O[C@@H](n2cnc3c(N)ncnc32)[C@H](O)[C@@H]1O (some centres unmarked) [SAM]

Structure (SMILES): COc1cccc2c1C(=O)c1c(O)c3c(c(O)c1C2=O)C[C@@](O)(C(=O)CO)C[C@@H]3O[C@H]1C[C@H](N)[C@H](O)[C@H](C)O1 [Doxorubicin]
CC50 at 72 h ([2]; read-out: Doxorubicin IC50 (μM), normal cells): 0.681 µM

Km ([1]; 2 mM SAM (saturating), read-out: apparent Km): 15.6 ± 1.75 µM
Structure (SMILES): COc1cc2c(c(O)c1O)C(=O)c1c(coc1C)C2 [NOC-IBR1, 6-methoxy-7,8-dihydroxy-1-methylnaphtho [2,3-c] furan-9-one]
IC50 [3]: 200 µM
IC50 [4]: 61.1 µM
IC50 [5]: 120 µM
IC50 [6]: 44.4 µM
CC50 at 72 h ([2]; read-out: NOC-IBR1 IC50 (μM), normal cells): > 200 µM
